Consider ten molecules from patent US20230218688A1 (Zhejiang Chinese Medical University, priority 2022, published 2023).

Test [1] concerns Lactobacillus helveticus ZJUIDS12. The test is described as follows: Antibiotic susceptibility of Lactobacillus helveticus ZJUIDS12 (susceptibility paper, inhibition zone). It counts as cell-based. Set-up: key to Susceptive type: S: sensitive; I: intermediate; R: insensitive. The following applies: according to CLSI 2017.
Test [2] concerns Helicobacter pylori ATCC43504. As to the kind of experiment: Growth inhibition experiment on Helicobacter pylori. In kind it is cell-based.

For `Cc1nnc(SCC2=C(C(=O)O)N3C(=O)[C@@H](NC(=O)Cn4cnnn4)[C@H]3SC2)s1` [Cefazolin(CZ), Cefazolin], in test [1], the Susceptive type result is “S” and the “susceptibility of Lactobacillus helveticus ZJUIDS12 to the antibiotic (in words)” value (“susceptibility” for short) was “sensitive”.
Turning to `Cc1ncc([N+](=O)[O-])n1CCO` [Positive control, metronidazole], the “Inhibition rates to Helicobacter pylori (%)” value in test [2] (Fermentation supernatant) and in test [2] (Suspension) was 100% each time.
Regarding `CCn1cc(C(=O)O)c(=O)c2cc(F)c(N3CCNCC3)cc21` [Norfloxacin (NOR), Norfloxacin], in test [1], the Susceptive type result is “S” and the “susceptibility” value is on record as “sensitive”.
As for `Cc1cc(NS(=O)(=O)c2ccc(N)cc2)no1` [Sulfamethoxazole (SXT), Sulfamethoxazole], in test [1], the Susceptive type result is “R” and the “susceptibility” value is on record as “insensitive”.
For the molecule `O=C(N[C@H](CO)[C@H](O)c1ccc([N+](=O)[O-])cc1)C(Cl)Cl` [Chloramphenicol (C), Chloramphenicol], in test [1], the Susceptive type entry is “S” and the “susceptibility” value is recorded as “sensitive”.
With `NCC[C@H](O)C(=O)N[C@@H]1C[C@H](N)[C@@H](O[C@H]2O[C@H](CN)[C@@H](O)[C@H](O)[C@H]2O)[C@H](O)[C@H]1O[C@H]1O[C@H](CO)[C@@H](O)[C@H](N)[C@H]1O` [Amikacin (AK), Amikacin], in test [1], the Susceptive type entry is reported as “S” and the “susceptibility” value is “sensitive”.
In the same order, the values of `CC1(C)S[C@@H]2[C@H](NC(=O)Cc3ccccc3)C(=O)N2[C@H]1C(=O)O` [Penicillin G(P), Penicillin G] are “S” and “sensitive”.
The corresponding values for Gentamicin [Gentamicin (GM)] are “I” and “intermediate”.
As to `CC1(C)S[C@@H]2[C@H](NC(=O)[C@H](N)c3ccccc3)C(=O)N2[C@H]1C(=O)O` [Ampicillin (AM), Ampicillin], in test [1], the Susceptive type entry is reported as “S” and the “susceptibility” value is “sensitive”.
As to `CC[C@H]1OC(=O)[C@H](C)[C@@H](O[C@H]2C[C@@](C)(OC)[C@@H](O)[C@H](C)O2)[C@H](C)[C@@H](O[C@@H]2O[C@H](C)C[C@H](N(C)C)[C@H]2O)[C@](C)(O)C[C@@H](C)C(=O)[C@H](C)[C@@H](O)[C@]1(C)O` [Erythromycin (E), Erythromycin], in test [1], the Susceptive type entry is “S” and the “susceptibility” value is on record as “sensitive”.
